Laboratory results from PubChem BioAssay AID1745844 (Carcinogenic Potency Database (CPDB), 2022).
Several values for one entry are separate records, joined by “and”; a condition that tells them apart may be missing. Identical values can stand only once. Activity calls are given as the source filed them. The rule behind the calls is not given here.

Test system: rodent lifetime carcinogenesis bioassay, tumor incidence TD50
Experiment: carcinogenic potency in animals, long-term in vivo studies, CPDB compilation (AID 1745844)

O=c1c(O)c(-c2ccc(O)c(O)c2)oc2cc(O)cc(O)c12
carcinogen call (hamster, strain Syrian Golden, females, in feed, site: forestomach, lesion: papilloma, dosed 50 weeks, study length 100 weeks): negative (inactive)
TD50 (hamster, strain Syrian Golden, females, in feed, site: forestomach, lesion: papilloma, dosed 101 weeks, study length 101 weeks): 18900 mg/kg/day (inactive)
carcinogen call (hamster, strain Syrian Golden, females, in feed, site: forestomach, lesion: papilloma, dosed 104 weeks, study length 104 weeks): negative (inactive)
TD50 (hamster, strain Syrian Golden, females, in feed, site: ileum, lesion: adenocarcinoma, dosed 104 weeks, study length 104 weeks): 140000 mg/kg/day (inactive)
TD50 (hamster, strain Syrian Golden, females, in feed, site: uterus, lesion: leiomyoma, dosed 101 weeks, study length 101 weeks): 39200 mg/kg/day (inactive)
carcinogen call (hamster, strain Syrian Golden, males, in feed, site: adrenal gland, lesion: cortical adenoma, dosed 101 weeks, study length 101 weeks): negative (inactive)
carcinogen call (hamster, strain Syrian Golden, males, in feed, site: adrenal gland, lesion: cortical adenoma, dosed 104 weeks, study length 104 weeks): negative (inactive)
TD50 (hamster, strain Syrian Golden, males, in feed, site: forestomach, lesion: papilloma, dosed 50 weeks, study length 100 weeks): 1440 mg/kg/day (inactive)
carcinogen call (hamster, strain Syrian Golden, males, in feed, site: forestomach, lesion: papilloma, dosed 101 weeks, study length 101 weeks): negative (inactive)
TD50 (hamster, strain Syrian Golden, males, in feed, site: forestomach, lesion: papilloma, dosed 104 weeks, study length 104 weeks): 56700 mg/kg/day (inactive)
carcinogen call (mouse, strain DDY, females, in feed, site: liver, lesion: one or several types, types not named, dosed 120 weeks, study length 120 weeks): negative (inactive)
TD50 (mouse, strain DDY, females, in feed, site: lung, lesion: several types, types named in the paper, dosed 120 weeks, study length 120 weeks): 4240 mg/kg/day (inactive)
TD50 (mouse, strain DDY, males, in feed, site: heart, lesion: spindle-cell sarcoma, dosed 115 weeks, study length 115 weeks): 73400 mg/kg/day (inactive)
TD50 (mouse, strain DDY, males, in feed, site: liver, lesion: several types, types named in the paper, dosed 115 weeks, study length 115 weeks): 15100 mg/kg/day (inactive)
TD50 (mouse, strain DDY, males, in feed, site: lung, lesion: several types, types named in the paper, dosed 115 weeks, study length 115 weeks): 5460 mg/kg/day (inactive)
carcinogen call (rat, strain ACI, females, in feed, site: adrenal gland, lesion: cortical adenoma, dosed 77 weeks, study length 77 weeks): negative (inactive)
TD50 (rat, strain ACI, females, in feed, site: adrenal gland, lesion: cortical adenoma, dosed 121 weeks, study length 121 weeks): 226000 mg/kg/day (inactive)
carcinogen call (rat, strain ACI, females, in feed, site: pituitary gland, lesion: adenoma, dosed 77 weeks, study length 77 weeks): negative (inactive)
TD50 (rat, strain ACI, females, in feed, site: pituitary gland, lesion: adenoma, dosed 121 weeks, study length 121 weeks): 461000 mg/kg/day (inactive)
TD50 (rat, strain ACI, females, in feed, site: thigh, lesion: sarcoma, dosed 121 weeks, study length 121 weeks): 90400 mg/kg/day (inactive)
TD50 (rat, strain ACI, males, in feed, site: adrenal gland, lesion: pheochromocytoma, dosed 77 weeks, study length 77 weeks): 7130 mg/kg/day (inactive)
TD50 (rat, strain ACI, males, in feed, site: cecum, lesion: adenocarcinoma, dosed 121 weeks, study length 121 weeks): 35200 mg/kg/day (inactive)
TD50 (rat, strain ACI, males, in feed, site: cecum, lesion: adenoma, dosed 77 weeks, study length 77 weeks): 7130 mg/kg/day (inactive)
TD50 (rat, strain ACI, males, in feed, site: cecum, lesion: adenoma, dosed 121 weeks, study length 121 weeks): 72300 mg/kg/day (inactive)
TD50 (rat, strain ACI, males, in feed, site: pancreas, lesion: exocrine adenoma, dosed 121 weeks, study length 121 weeks): 72300 mg/kg/day (inactive)
TD50 (rat, strain ACI, males, in feed, site: testis, lesion: interstitial-cell tumor, dosed 77 weeks, study length 77 weeks): 2290 mg/kg/day (inactive)
TD50 (rat, strain F344/DuCrj, females, in feed, site: all sites, lesion: lymphoma and leukemia, combined, dosed 104 weeks, study length 112 weeks): 7860 mg/kg/day (inactive)
carcinogen call (rat, strain F344/DuCrj, females, in feed, site: liver, lesion: hyperplastic nodule, dosed 104 weeks, study length 112 weeks): negative (inactive)
TD50 (rat, strain F344/DuCrj, females, in feed, site: uterus, lesion: endometrial stromal polyp, dosed 104 weeks, study length 112 weeks): 19300 mg/kg/day (inactive)
TD50 (rat, strain F344/DuCrj, males, in feed, site: all sites, lesion: lymphoma and leukemia, combined, dosed 104 weeks, study length 112 weeks): 1160 mg/kg/day (inactive)
TD50 (rat, strain F344/DuCrj, males, in feed, site: liver, lesion: hyperplastic nodule, dosed 104 weeks, study length 112 weeks): 66800 mg/kg/day (inactive)
TD50 (rat, strain Fischer 344, females, in feed, site: adrenal gland, lesion: cortical adenoma, dosed 77 weeks, study length 77 weeks): 118 mg/kg/day (inactive)
carcinogen call (rat, strain Fischer 344, females, in feed, site: any site (literature study), lesion: several types, types named in the paper, dosed 64 weeks, study length 64 weeks): negative (inactive)
TD50 (rat, strain Fischer 344, females, in feed, site: liver, lesion: hepatocellular adenoma + hepatocellular carcinoma + neoplastic nodule, dosed 103 weeks, study length 103 weeks): 75700 mg/kg/day
TD50 (rat, strain Fischer 344, females, in feed, site: tongue, lesion: squamous-cell carcinoma, dosed 103 weeks, study length 103 weeks): 36500 mg/kg/day (inactive)
carcinogen call (rat, strain Fischer 344, males, in feed, site: any site (literature study), lesion: several types, types named in the paper, dosed 64 weeks, study length 64 weeks): negative (inactive)
carcinogen call (rat, strain Fischer 344, males, in feed, site: any site (literature study), lesion: several types, types named in the paper, dosed 77 weeks, study length 77 weeks): negative (inactive)
TD50 (rat, strain Fischer 344, males, in feed, site: kidney, lesion: tubule adenoma + tubular-cell adenocarcinoma, dosed 103 weeks, study length 103 weeks): 8990 mg/kg/day and 5250 mg/kg/day
TD50 (rat, strain Fischer 344, males, in feed, site: kidney, lesion: tubule adenoma, dosed 103 weeks, study length 103 weeks): 12500 mg/kg/day and 6030 mg/kg/day
TD50 (rat, strain Norwegian albino, females, in feed, site: ileum, lesion: adenocarcinoma, dosed 58 weeks, study length 58 weeks): 15.4 mg/kg/day
TD50 (rat, strain Norwegian albino, females, in feed, site: ileum, lesion: several types, types named in the paper, dosed 58 weeks, study length 58 weeks): 5.12 mg/kg/day
TD50 (rat, strain Norwegian albino, females, in feed, site: urinary bladder, lesion: several types, types named in the paper, dosed 58 weeks, study length 58 weeks): 51.3 mg/kg/day
carcinogen call (rat, strain Norwegian albino, males, in feed, site: ileum, lesion: several types, types named in the paper, dosed 58 weeks, study length 58 weeks): positive
TD50 (rat, strain Norwegian albino, males, in feed, site: urinary bladder, lesion: transitional-cell carcinoma, dosed 58 weeks, study length 58 weeks): 21 mg/kg/day

OC[C@@H](O)[C@H]1O[C@@H]2O[C@H](C(Cl)(Cl)Cl)O[C@@H]2[C@H]1O
TD50 (mouse, strain B6AKF1, females, oral dosing, site: any site (literature study), lesion: several types, types named in the paper, dosed 76 weeks, study length 76 weeks): 17.3 mg/kg/day (inactive)
carcinogen call (mouse, strain B6AKF1, females, oral dosing, site: liver, lesion: hepatoma, dosed 76 weeks, study length 76 weeks): negative (inactive)
TD50 (mouse, strain B6AKF1, females, oral dosing, site: lung, lesion: adenoma, dosed 76 weeks, study length 76 weeks): 19.5 mg/kg/day (inactive)
carcinogen call (mouse, strain B6AKF1, males, oral dosing, site: any site (literature study), lesion: several types, types named in the paper, dosed 76 weeks, study length 76 weeks): negative (inactive)
carcinogen call (mouse, strain B6AKF1, males, oral dosing, site: liver, lesion: hepatoma, dosed 76 weeks, study length 76 weeks): negative (inactive)
carcinogen call (mouse, strain B6AKF1, males, oral dosing, site: lung, lesion: adenoma, dosed 76 weeks, study length 76 weeks): negative (inactive)
carcinogen call (mouse, strain B6C3F1, females, oral dosing, site: any site (literature study), lesion: one or several types, types not named, dosed 76 weeks, study length 76 weeks): negative (inactive)
carcinogen call (mouse, strain B6C3F1, females, oral dosing, site: liver, lesion: hepatoma, dosed 76 weeks, study length 76 weeks): negative (inactive)
carcinogen call (mouse, strain B6C3F1, females, oral dosing, site: lung, lesion: several types, types named in the paper, dosed 76 weeks, study length 76 weeks): negative (inactive)
TD50 (mouse, strain B6C3F1, males, oral dosing, site: any site (literature study), lesion: several types, types named in the paper, dosed 76 weeks, study length 76 weeks): 4.07 mg/kg/day (inactive)
TD50 (mouse, strain B6C3F1, males, oral dosing, site: liver, lesion: hepatoma, dosed 76 weeks, study length 76 weeks): 7.27 mg/kg/day (inactive)
TD50 (mouse, strain B6C3F1, males, oral dosing, site: lung, lesion: adenoma, dosed 76 weeks, study length 76 weeks): 11.2 mg/kg/day (inactive)

C=C(C)[C@H]1CC=C(C)C(=O)C1
carcinogen call (mouse, strain B6C3F1, females, by gavage, site: any site (literature study), lesion: several types, types named in the paper, dosed 103 weeks, study length 105 weeks): negative (inactive)
carcinogen call (mouse, strain B6C3F1, males, by gavage, site: any site (literature study), lesion: several types, types named in the paper, dosed 103 weeks, study length 105 weeks): negative (inactive)
TD50 (mouse, strain B6C3F1, males, by gavage, site: liver, lesion: hepatocellular adenoma + hepatocellular carcinoma + neoplastic nodule, dosed 103 weeks, study length 105 weeks): 63800 mg/kg/day

CC(CO)OC(C)CO (stereo unspecified) (tested in a mixture with another compound)
carcinogen call (mouse, strain B6C3F1, females, in drinking water, site: any site (literature study), lesion: several types, types named in the paper, dosed 104 weeks, study length 104 weeks): negative (inactive)
TD50 (mouse, strain B6C3F1, females, in drinking water, site: lung, lesion: alveolar/bronchiolar adenoma + alveolar/bronchiolar carcinoma, dosed 104 weeks, study length 104 weeks): 31800 mg/kg/day
TD50 (mouse, strain B6C3F1, males, in drinking water, site: any site (literature study), lesion: several types, types named in the paper, dosed 104 weeks, study length 104 weeks): 24500 mg/kg/day (inactive)
TD50 (mouse, strain B6C3F1, males, in drinking water, site: lung, lesion: alveolar/bronchiolar adenoma + alveolar/bronchiolar carcinoma, dosed 104 weeks, study length 104 weeks): 18100 mg/kg/day
carcinogen call (rat, strain Fischer 344, females, in drinking water, site: any site (literature study), lesion: several types, types named in the paper, dosed 104 weeks, study length 104 weeks): negative (inactive)
TD50 (rat, strain Fischer 344, males, in drinking water, site: any site (literature study), lesion: several types, types named in the paper, dosed 104 weeks, study length 102 weeks): 274 mg/kg/day (inactive)
TD50 (rat, strain Fischer 344, males, in drinking water, site: liver, lesion: hepatocellular adenoma + hepatoblastoma + hepatocellular carcinoma, dosed 104 weeks, study length 102 weeks): 68200 mg/kg/day

CCNC(=O)Nc1ncc([N+](=O)[O-])s1
TD50 (mouse, strain B6C3F1, females, in feed, site: any site (literature study), lesion: several types, types named in the paper, dosed 94 weeks, study length 104 weeks): 1400 mg/kg/day (inactive)
TD50 (mouse, strain B6C3F1, females, in feed, site: liver, lesion: hepatocellular adenoma + hepatocellular carcinoma + neoplastic nodule, dosed 94 weeks, study length 104 weeks): 2720 mg/kg/day
TD50 (mouse, strain B6C3F1, males, in feed, site: any site (literature study), lesion: several types, types named in the paper, dosed 94 weeks, study length 104 weeks): 4750 mg/kg/day
TD50 (mouse, strain B6C3F1, males, in feed, site: liver, lesion: hepatocellular adenoma + hepatocellular carcinoma + neoplastic nodule, dosed 94 weeks, study length 104 weeks): 758 mg/kg/day
TD50 (mouse, strain B6C3F1, males, in feed, site: liver, lesion: hepatocellular adenoma + hepatocellular carcinoma, dosed 94 weeks, study length 104 weeks): 758 mg/kg/day
TD50 (mouse, strain B6C3F1, males, in feed, site: liver, lesion: hepatocellular carcinoma, dosed 94 weeks, study length 104 weeks): 1900 mg/kg/day
TD50 (rat, strain Fischer 344, females, in feed, site: any site (literature study), lesion: several types, types named in the paper, dosed 94 weeks, study length 104 weeks): 175 mg/kg/day
TD50 (rat, strain Fischer 344, females, in feed, site: mammary gland + skin + subcutaneous tissue, lesion: cystadenoma, NOS + fibroadenoma, dosed 94 weeks, study length 104 weeks): 131 mg/kg/day
carcinogen call (rat, strain Fischer 344, males, in feed, site: any site (literature study), lesion: several types, types named in the paper, dosed 94 weeks, study length 104 weeks): negative (inactive)
TD50 (rat, strain Fischer 344, males, in feed, site: liver, lesion: hepatocellular adenoma + hepatocellular carcinoma + neoplastic nodule, dosed 94 weeks, study length 104 weeks): 508 mg/kg/day
